Experiments:
Cytochrome P450 2C9 = Cytochrome P450 2C9 (Homo sapiens, UniProt P11712); experiment: Inhibition of CYP2C9 (unknown origin); assay type: ADME
[1] = Plasma clearance in dog at 0.363 mg/kg, iv and 0.737 mg/kg, po; assay type: ADME, organism-based, Canis lupus familiaris
[2] = Oral bioavailability in dog at 0.737 mg/kg; assay type: ADME, organism-based, Canis lupus familiaris; details: in vivo
[3] = Drug metabolism in human liver microsomes assessed as monooxidation at phenyl and pyridine moieties; assay type: ADME
[4] = Drug metabolism in rat liver microsomes assessed as monooxidation at phenyl and pyridine moieties; assay type: ADME
[5] = Drug metabolism in rat hepatocytes assessed as glucuronidation in presence of glutathione and water; assay type: ADME, cell-based, Hepatocyte
Rattus norvegicus [6] = experiment: Toxicity in Wistar Han rat assessed as increase in liver weight at >= 30 mg/kg/day, po administered for 14 days; assay type: organism-based; details: in vivo, 336 h
Rattus norvegicus [7] = experiment: Toxicity in Wistar Han rat assessed as increase in liver to body weight ratio at >= 30 mg/kg/day, po administered for 14 days; assay type: organism-based; details: in vivo, 336 h
Rattus norvegicus [8] = experiment: Toxicity in Wistar Han rat assessed as centrilobular hepatocyte hypertrophy at 100 mg/kg/day, po administered for 14 days; assay type: organism-based; details: hepatocytes, 336 h
[9] = Average plasma concentration in Wistar Han rat at 10 mg/kg, po administered as single dose measured on day 14; assay type: ADME, organism-based; details: in vivo
[10] = Toxicity in dog assessed as transient panting at 10 mg/kg, po administered as single dose measured up to 30 hrs post dose; assay type: organism-based, Canis lupus familiaris; details: in vivo
[11] = Toxicity in dog assessed as emesis at 30 mg/kg, po administered as single dose measured 30 mins post dose; assay type: organism-based, Canis lupus familiaris; details: in vivo, 0.5 h
[12] = Unbound Cmax in dog at 10 mg/kg, po administered as single dose; assay type: ADME, organism-based, Canis lupus familiaris; details: in vivo
[13] = Unbound Cmax in dog at 30 mg/kg, po administered as single dose; assay type: ADME, organism-based, Canis lupus familiaris; details: in vivo
[14] = Half life in dog at 1 mg/kg, iv and 3 mg/kg, po; assay type: ADME, organism-based, Canis lupus familiaris; details: in vivo
Rattus norvegicus [15] = experiment: Toxicity in Wistar Han rat assessed as moribundity at 300 mg/kg, po administered as single dose; assay type: organism-based; details: in vivo
Rattus norvegicus [16] = experiment: Toxicity in Wistar Han rat assessed as mortality at 300 mg/kg, po administered as single dose; assay type: organism-based; details: in vivo
[17] = Average plasma concentration in Wistar Han rat at 100 mg/kg, po administered as single dose measured on day 14; assay type: ADME, organism-based; details: in vivo

Sequence of Cytochrome P450 2C9 (P11712 whole entry): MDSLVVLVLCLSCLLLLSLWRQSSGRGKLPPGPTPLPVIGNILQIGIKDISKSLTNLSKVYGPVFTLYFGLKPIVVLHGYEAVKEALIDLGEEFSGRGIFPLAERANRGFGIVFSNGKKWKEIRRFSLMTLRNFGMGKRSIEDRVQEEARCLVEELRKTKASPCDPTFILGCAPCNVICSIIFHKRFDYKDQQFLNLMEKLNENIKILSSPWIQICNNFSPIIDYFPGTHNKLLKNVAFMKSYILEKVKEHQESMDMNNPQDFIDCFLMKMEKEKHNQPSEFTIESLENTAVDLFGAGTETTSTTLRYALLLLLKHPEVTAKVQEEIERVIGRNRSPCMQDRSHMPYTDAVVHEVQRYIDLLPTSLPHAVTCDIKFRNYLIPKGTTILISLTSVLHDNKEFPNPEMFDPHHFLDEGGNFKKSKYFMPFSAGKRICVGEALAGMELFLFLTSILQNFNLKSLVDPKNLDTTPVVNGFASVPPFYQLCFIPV

SMILES	IC50 (Cytochrome P450 2C9) [nM]	clearance [1] [mL/day/kg]	bioavailability [2] [%]	Drug metabolism [3]	Drug metabolism [4]	Drug metabolism [5]	Activity (Rattus norvegicus [6])	Activity (Rattus norvegicus [7])	Activity (Rattus norvegicus [8])	Cave [9] [nM]	Activity [10]	Activity [11]	fCmax [12] [nM]	fCmax [13] [µM]	half-life [14] [h]	Activity (Rattus norvegicus [15])	Activity (Rattus norvegicus [16])	Cave [17] [nM]
O=S(=O)(Nc1ccc(C(F)(F)F)nc1)c1ccccc1C(F)(F)F	1100	20.2	104	Metabolite_Detected	Metabolite_Detected	Metabolite_Detected	Non-Toxic	Non-Toxic	Non-Toxic	422	Toxic	Toxic	1498	3.754				
O=S(=O)(Nc1cncc(C(F)(F)F)c1)c1ccccc1C(F)(F)F															2.4	Toxic	Toxic	807
